Experimental data published in paper PMC3445454, “Broad and Cross-Clade CD4^+ T-Cell Responses Elicited by a DNA Vaccine Encoding Highly Conserved and Promiscuous HIV-1 M-Group Consensus Peptides” (PLoS ONE, 2012).
Numbering of substitutions follows the chain as printed. Where two headings read alike, the source gives them in different places. Ends that are not written are not given here.

Experiments:
Test in all cases: biochemical
HLA-DR DRB1*13:02 = HLA-DR DRB1*13:02 (Homo sapiens, UniProt P01903+P01911, A100E/A169T/K41T/L162R/M171V/P40S/Q125H/Q178H/Q39Y/Q99D/R42S/S66N/T262R/V115G/W38E/Y61H); format: binding
HLA-DR DRB3*01:01 = HLA-DR DRB3*01:01 (Homo sapiens, UniProt P01903+P79483); format: binding
[1] = target: HLA-DP DPA1*02:01/DPB1*01:01 (Homo sapiens, UniProt P04440+P20036, F191V/F38Y/F64Y/G113D/G114E/K142R/L158P/L37V/M105V/M116V/M62Q/P115A/Q81R/R125K/R223Q/T114A/T199I/T259P)
HLA-DR DRB1*10:01 = HLA-DR DRB1*10:01 (Homo sapiens, UniProt P01903+P01911, A100R/A169T/D57E/F55L/F60V/F69Y/F76Y/I96L/L162R/M171V/P40V/Q260P/Q39E/Q99R/R195Q/R42F/S149N/S66Y/T210M/V115G/V67A/W38E/Y59R/Y61H); format: binding
HLA-DR DRB3*02:02 = HLA-DR DRB3*02:02 (Homo sapiens, UniProt P01903+P79483, A212P/D57E/F66Y/L67A/R103Q/R218S/R40L/S89Y/T80R/V86D/Y55F/Y59H); format: binding; settings: read-out: Binding capacity/IC50 (nM) DRB3*02:02
HLA-DR DRB1*07:01 = HLA-DR DRB1*07:01 (Homo sapiens, UniProt P01903+P01911, A100R/A102G/A103Q/D57E/D86V/E43K/F76Y/K127E/L162R/M171V/P40G/Q125H/Q99D/R33Q/R42Y/R54Q/S133A/S66F/T210M/V115G/Y107V/Y59L/Y89S); format: binding
HLA-DR DRB1*01:01 = HLA-DR DRB1*01:01 (Homo sapiens, UniProt P01903+P01911, A100R/D57E/F55L/F60I/F76Y/I96L/L162R/M171V/P40L/Q125E/R42F/V115G/Y59C); format: binding
[2] = target: T1, HLA-DP DPA1*02:01/DPB1*14:01 (Homo sapiens, UniProt P04440+P20036, A65V/A84D/A85E/E86D/F191V/F38H/G113D/G114E/G40L/I94L/K142R/L158P/L37V/M105V/M116V/M62Q/P115A/Q81R/R125K/T114A/T199I/T259P); format: binding
T1 sequence (P20036 29-260 A42M/M62Q/Q81R/T114A/K142R/L158P/F191V/T259P): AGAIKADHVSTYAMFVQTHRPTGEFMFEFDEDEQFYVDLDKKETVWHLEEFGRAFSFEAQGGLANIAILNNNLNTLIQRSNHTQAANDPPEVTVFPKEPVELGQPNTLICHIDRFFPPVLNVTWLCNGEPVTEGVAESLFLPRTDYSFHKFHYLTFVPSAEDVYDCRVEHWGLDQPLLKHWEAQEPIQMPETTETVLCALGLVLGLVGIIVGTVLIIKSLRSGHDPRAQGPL
T1 sequence (P04440 30-258 L37V/F38H/G40L/A65V/A84D/A85E/E86D/I94L/M105V/G113D/G114E/P115A/M116V/R125K/T199I/R223Q): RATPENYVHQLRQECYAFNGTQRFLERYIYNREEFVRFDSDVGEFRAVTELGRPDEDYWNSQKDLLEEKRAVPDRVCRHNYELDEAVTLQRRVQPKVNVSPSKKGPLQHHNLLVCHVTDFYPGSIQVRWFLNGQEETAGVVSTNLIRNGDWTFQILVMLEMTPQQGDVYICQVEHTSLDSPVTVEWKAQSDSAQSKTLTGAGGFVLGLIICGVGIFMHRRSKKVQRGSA

[3] = target: T2, HLA-DP DPA1*01:03/DPB1*04:01 (Homo sapiens, UniProt P04440+P20036); format: binding
T2 sequence (P20036 29-260): T1 sequence (P20036 29-260 A42M/M62Q/Q81R/T114A/K142R/L158P/F191V/T259P) with M14A, Q34M, R53Q, A86T, R114K, P130L, V163F, P231T
T2 sequence (P04440 30-258): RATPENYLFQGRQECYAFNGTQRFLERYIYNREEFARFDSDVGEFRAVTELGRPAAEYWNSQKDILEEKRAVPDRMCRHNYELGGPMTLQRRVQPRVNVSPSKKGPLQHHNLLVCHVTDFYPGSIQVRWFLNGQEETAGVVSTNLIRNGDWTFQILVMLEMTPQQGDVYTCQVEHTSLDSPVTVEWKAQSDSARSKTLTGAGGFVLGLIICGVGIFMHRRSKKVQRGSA

HLA-DR DRB1*15:01 = HLA-DR DRB1*15:01 (Homo sapiens, UniProt P01903+P01911); format: binding
HLA-DR DRB1*16:02 = HLA-DR DRB1*16:02 (Homo sapiens, UniProt P01903+P01911, A100R/F76Y/I96L/Q99D/V115G); format: binding
HLA-DR DRB1*04:01 = HLA-DR DRB1*04:01 (Homo sapiens, UniProt P01903+P01911, A100K/A169T/F76Y/I96L/K127E/L162R/M171V/N62H/P40V/Q125Y/R42H/S133A/S149N/S66Y/V115G/V209L/W38E); format: binding
HLA-DR DRB1*11:01 = HLA-DR DRB1*11:01 (Homo sapiens, UniProt P01903+P01911, A100R/A169T/A87E/I96F/K41T/L162R/M171V/P40S/Q125H/Q178H/Q39Y/Q99D/R42S/S66Y/T262R/V115G/W38E); format: binding
[4] = read-out: Binding capacity/IC50 (nM) DRB3*01:01
[5] = read-out: Binding capacity/IC50 (nM) DPA1*02:01 DPB1*14:01
[6] = read-out: Binding capacity/IC50 (nM) DPA1*01:03 DPB1*04:01
[7] = read-out: Binding capacity/IC50 (nM) DRB1*15:01

Sequence of HLA-DR DRB1*11:01 (P01903 26-254 limits assumed, other chains not shown): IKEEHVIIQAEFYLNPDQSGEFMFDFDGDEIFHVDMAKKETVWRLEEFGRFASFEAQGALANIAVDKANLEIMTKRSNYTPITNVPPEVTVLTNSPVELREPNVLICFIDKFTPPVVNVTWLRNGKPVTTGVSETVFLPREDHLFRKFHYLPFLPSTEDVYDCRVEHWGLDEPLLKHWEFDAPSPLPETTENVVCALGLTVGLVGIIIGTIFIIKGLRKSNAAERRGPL
Sequence of HLA-DR DRB1*13:02 (P01903 26-254 limits assumed, other chains not shown): as above
Sequence of HLA-DR DRB3*02:02 (P01903 26-254 limits assumed): as the sequence (P01903 26-254 limits assumed, other chains not shown) above
Sequence of HLA-DR DRB3*02:02 (P79483 30-266 R40L/Y55F/D57E/Y59H/F66Y/L67A/T80R/V86D/S89Y/R103Q/A212P/R218S limits assumed): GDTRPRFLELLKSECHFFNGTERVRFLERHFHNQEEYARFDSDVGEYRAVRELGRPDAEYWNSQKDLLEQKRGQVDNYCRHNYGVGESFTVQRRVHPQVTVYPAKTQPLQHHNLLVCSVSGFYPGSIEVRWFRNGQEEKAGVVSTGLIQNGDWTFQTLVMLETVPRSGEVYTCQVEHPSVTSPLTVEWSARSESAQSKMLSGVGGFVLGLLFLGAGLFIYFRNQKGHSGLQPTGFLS

Compound	IC50 (HLA-DR DRB1*13:02)	IC50 (HLA-DR DRB3*01:01; [4])	IC50 [1]	IC50 (HLA-DR DRB1*10:01)	IC50 (HLA-DR DRB3*02:02)	IC50 (HLA-DR DRB1*07:01)	IC50 (HLA-DR DRB1*01:01)	IC50 [2, 5]	IC50 [3, 6]	IC50 (HLA-DR DRB1*15:01; [7])	IC50 (HLA-DR DRB1*16:02)	IC50 (HLA-DR DRB1*04:01)	IC50 (HLA-DR DRB1*11:01)	IC50 [2]	IC50 (HLA-DR DRB1*15:01)	other results
CC[C@H](C)[C@H](NC(=O)[C@H](C)NC(=O)[C@H](CCCCN)NC(=O)[C@H](CCCCN)NC(=O)CNC(=O)[C@H](CS)NC(=O)[C@@H](NC(=O)[C@H](CCC(=O)O)NC(=O)[C@@H](NC(=O)[C@H](CC(C)C)NC(=O)[C@@H](NC(=O)[C@H](CCC(N)=O)NC(=O)[C@H](CC(=O)O)NC(=O)[C@H](Cc1ccc(O)cc1)NC(=O)[C@H](CCC(N)=O)NC(=O)[C@H](CCCNC(=N)N)NC(=O)[C@@H](NC(=O)[C@H](CCCCN)NC(=O)[C@@H](NC(=O)[C@@H](N)Cc1ccccc1)[C@@H](C)CC)C(C)C)[C@@H](C)CC)[C@@H](C)CC)[C@@H](C)CC)C(=O)NCC(=O)N[C@H](C(=O)N[C@H](C(N)=O)C(C)C)[C@@H](C)O [protease(53-75)]	4080 nM	545 nM	112 nM	62 nM	9690 nM	1770 nM	29 nM	1250 nM	452 nM	111 nM	388 nM	675 nM	1360 nM	–	–	–
CC[C@H](C)[C@H](NC(=O)[C@H](C)NC(=O)[C@@H](N)CCC(=O)O)C(=O)N[C@H](C(=O)N[C@@H](CCCNC(=N)N)C(=O)N[C@H](C(=O)N[C@@H](CC(C)C)C(=O)N[C@@H](CCC(N)=O)C(=O)N[C@@H](CCC(N)=O)C(=O)N[C@@H](CC(C)C)C(=O)N[C@@H](CC(C)C)C(=O)N[C@@H](Cc1ccccc1)C(=O)N[C@H](C(=O)N[C@@H](Cc1c[nH]cn1)C(=O)N[C@@H](Cc1ccccc1)C(=O)N[C@@H](CCCNC(=N)N)C(=O)N[C@H](C(=O)NCC(=O)N[C@@H](CS)C(=O)N[C@@H](CCC(N)=O)C(=O)N[C@@H](Cc1c[nH]cn1)C(=O)N[C@@H](CO)C(=O)N[C@@H](CCCNC(=N)N)C(N)=O)[C@@H](C)CC)[C@@H](C)CC)[C@@H](C)CC)[C@@H](C)CC [vpr(58-80)]	5010 nM	–	2630 nM	170 nM	4090 nM	885 nM	305 nM	–	113 nM	–	588 nM	361 nM	724 nM	3570 nM	149 nM	IC50 (HLA-DR DRB3*01:01): 11600 nM
SEELRSLYNTVATLYCVHQ-NH2 [p17(72-90)]	–	907 nM	860 nM	–	6290 nM	–	–	–	240 nM	143 nM	–	–	–	9710 nM	–	IC50 (HLA-DR DRB1*13:02; read-out: Binding capacity/IC50 (nM) DRB1*13:02): 1050 nM; IC50 (HLA-DR DRB1*10:01; read-out: Binding capacity/IC50 (nM) DRB1*10:01): 39 nM; IC50 (HLA-DR DRB1*07:01; read-out: Binding capacity/IC50 (nM) DRB1*07:01): 661 nM; IC50 (HLA-DR DRB1*01:01; read-out: Binding capacity/IC50 (nM) DRB1*01:01): 20 nM; IC50 (HLA-DR DRB1*16:02; read-out: Binding capacity/IC50 (nM) DRB1*16:02): 140 nM; IC50 (HLA-DR DRB1*04:01; read-out: Binding capacity/IC50 (nM) DRB1*04:01): 279 nM; IC50 (HLA-DR DRB1*11:01; read-out: Binding capacity/IC50 (nM) DRB1*11:01): 1070 nM
VVIQDNSDIKVVPRRKAKII-NH2 [integrase(249-268)]	5420 nM	2650 nM	5730 nM	913 nM	4530 nM	5710 nM	110 nM	3980 nM	–	–	500 nM	2870 nM	28 nM	–	139 nM	IC50 [3]: 9120 nM
